From publication PMC10824666 (Nature Cancer, 2023)
Where two headings read alike, the source gives them in different places. Blank lines part the entries; values can stand above or below the molecule they belong to.

Assays:
Assay in all cases: biochemical
Parameters in all cases: Eurofins DiscoverX kinase panel, competitive binding assay at 1 uM, percent of DMSO control
Settings in all cases: competitive binding, percent of DMSO control
[1] = molecular target: T1, CAMK4 (Homo sapiens, UniProt Q16566)
T1 sequence (Q16566 1-473): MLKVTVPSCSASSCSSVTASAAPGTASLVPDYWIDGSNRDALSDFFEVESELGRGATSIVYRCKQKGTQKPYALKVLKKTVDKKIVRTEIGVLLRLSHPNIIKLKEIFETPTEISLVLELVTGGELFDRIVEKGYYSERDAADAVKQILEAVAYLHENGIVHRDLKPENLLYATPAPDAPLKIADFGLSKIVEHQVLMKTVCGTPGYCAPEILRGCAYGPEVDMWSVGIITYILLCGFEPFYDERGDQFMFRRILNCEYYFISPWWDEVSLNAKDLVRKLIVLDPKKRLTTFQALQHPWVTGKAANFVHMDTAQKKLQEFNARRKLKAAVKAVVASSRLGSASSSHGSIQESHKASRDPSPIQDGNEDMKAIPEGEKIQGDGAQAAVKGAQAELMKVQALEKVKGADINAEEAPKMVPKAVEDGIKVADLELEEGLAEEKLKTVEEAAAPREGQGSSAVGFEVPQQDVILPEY
Method in brief: (§1)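 Competitive binding assay across a 96-kinase panel with KIF18A compounds at 1 µM; values given as percentage of control (POC), single experiment.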

[2] = molecular target: T2, FLT3 (Homo sapiens, UniProt P36888)
T2 sequence (P36888 1-993): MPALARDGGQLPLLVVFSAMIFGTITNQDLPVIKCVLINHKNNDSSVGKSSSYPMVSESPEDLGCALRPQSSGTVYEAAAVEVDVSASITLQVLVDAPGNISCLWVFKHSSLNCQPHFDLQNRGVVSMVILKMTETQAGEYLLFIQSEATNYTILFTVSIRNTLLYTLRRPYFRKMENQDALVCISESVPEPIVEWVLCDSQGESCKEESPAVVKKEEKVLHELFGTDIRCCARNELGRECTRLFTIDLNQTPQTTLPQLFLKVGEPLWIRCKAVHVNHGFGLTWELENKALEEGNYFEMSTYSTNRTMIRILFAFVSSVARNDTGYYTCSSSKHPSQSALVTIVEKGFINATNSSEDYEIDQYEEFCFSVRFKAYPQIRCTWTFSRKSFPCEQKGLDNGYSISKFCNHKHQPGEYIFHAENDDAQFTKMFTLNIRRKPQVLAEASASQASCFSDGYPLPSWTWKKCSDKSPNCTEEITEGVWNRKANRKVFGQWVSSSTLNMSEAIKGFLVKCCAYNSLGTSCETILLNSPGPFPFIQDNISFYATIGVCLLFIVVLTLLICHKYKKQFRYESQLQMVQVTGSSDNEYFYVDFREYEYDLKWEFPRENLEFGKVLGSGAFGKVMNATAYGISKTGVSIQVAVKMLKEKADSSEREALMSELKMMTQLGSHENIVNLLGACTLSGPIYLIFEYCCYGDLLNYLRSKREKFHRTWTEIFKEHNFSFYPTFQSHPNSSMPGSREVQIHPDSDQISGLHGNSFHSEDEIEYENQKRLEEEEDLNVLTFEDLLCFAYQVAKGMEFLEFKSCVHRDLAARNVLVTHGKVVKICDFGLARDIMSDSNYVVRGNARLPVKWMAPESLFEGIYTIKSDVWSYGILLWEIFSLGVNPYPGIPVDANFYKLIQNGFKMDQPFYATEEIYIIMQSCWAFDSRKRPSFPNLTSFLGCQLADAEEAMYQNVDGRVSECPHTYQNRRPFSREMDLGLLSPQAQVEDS
Method in brief: as §1

[3] = molecular target: MAPK4 (Homo sapiens, UniProt P31152)
Chain of MAPK4 (P31152 whole entry): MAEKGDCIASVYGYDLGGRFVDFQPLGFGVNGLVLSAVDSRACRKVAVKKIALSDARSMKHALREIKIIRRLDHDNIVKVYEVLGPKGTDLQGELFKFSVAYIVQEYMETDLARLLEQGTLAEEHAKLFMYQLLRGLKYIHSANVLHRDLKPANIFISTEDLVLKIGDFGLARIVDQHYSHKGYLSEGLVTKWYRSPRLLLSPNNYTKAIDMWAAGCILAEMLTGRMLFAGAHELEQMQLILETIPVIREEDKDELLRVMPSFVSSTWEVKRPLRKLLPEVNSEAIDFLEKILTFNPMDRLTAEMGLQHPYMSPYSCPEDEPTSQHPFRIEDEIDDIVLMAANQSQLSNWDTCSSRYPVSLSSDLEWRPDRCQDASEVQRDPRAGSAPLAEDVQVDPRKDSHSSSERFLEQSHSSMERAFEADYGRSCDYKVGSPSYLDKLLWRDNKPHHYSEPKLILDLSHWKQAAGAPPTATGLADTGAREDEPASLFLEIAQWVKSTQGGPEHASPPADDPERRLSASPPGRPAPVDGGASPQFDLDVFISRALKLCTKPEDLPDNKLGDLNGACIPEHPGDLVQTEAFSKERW
Method in brief: as §1

[4] = read-out: Kinome Profiling performed by Eurofins DiscoverX / AM-0277, 1.0 µM / POC
[5] = read-out: Kinome Profiling performed by Eurofins DiscoverX / AM-1882, 1.0 µM / POC
[6] = read-out: Kinome Profiling performed by Eurofins DiscoverX / AM-5308, 1.0 µM / POC

- remaining activity at 1 µM [1, 4]: 81%
- remaining activity at 1 µM [2, 4]: 94%
- remaining activity at 1 µM [3, 4]: 98%
Structure (SMILES): CC(C)(CO)Nc1ccc(C(=O)Nc2cccc(S(=O)(=O)C3CCCC3)c2)c(N2CCC3(CC2)CC3)n1 [AM-0277]

- remaining activity at 1 µM [1, 5]: 99%
- remaining activity at 1 µM [2, 5]: 88%
- remaining activity at 1 µM [3, 5]: 99%
Structure (SMILES): CC(C)(C)NS(=O)(=O)c1cccc(NC(=O)c2ccc(S(=O)(=O)NC(C)(C)C)cc2N2CCC3(CC2)CC3)c1 [AM-1882]

- remaining activity at 1 µM [1, 6]: 100%
- remaining activity at 1 µM [2, 6]: 90.5%
- remaining activity at 1 µM [3, 6]: 81.5%
Structure (SMILES): C[C@@H]1CN(c2cccc(NC(=O)c3ccc(NS(=O)(=O)CCO)cc3N3CCC4(CC3)CC4)n2)CCO1 [AM-5308]
